Laboratory results as given in patent publication EP4736876A1, “DRUG COMBINATION CONTAINING PD-L1 SMALL MOLECULE INHIBITOR AND USE THEREOF” (Beijing Maxinovel Pharmaceuticals Co., Ltd., priority 2023, dated 2025).

Tests used:
[1] = system: 4T1 hPD-L1 cells; experiment: Pharmacodynamic study on mouse breast cancer 4T1 hPD-L1 model, subcutaneous (Example 1, capecitabine combination); type: in vivo, BALB/c mice; details: Compound of Formula I 120 mg/kg p.o. BID, Capecitabine 100 mg/kg p.o. QD
Method: Experimental animals: 100 BALB/c mice, female, 6 to 8 weeks old, weighing 18 to 21 g, purchased from Shanghai Jihui Laboratory Animal Care Co., Ltd. (SCXK (Shanghai) 2020-0009; Certificate No.: 20220009001922).
Drugs: Compound of Formula I [drawing 4] manufacturer: Pharmaron (Tianjin) Process Development and Manufacturing Co., Ltd., batch number: TJ-MAX-10181-A-2; Capecitabine, manufacturer: Shanghai Yuanye Bio-Technology Co., Ltd., batch number: J10J12L137020.
(§1) Murine 4T1 hPD-L1 cells were grown adherently in vitro under culture conditions of RPMI-1640 medium supplemented with 10% heat-inactivated fetal bovine serum and 4 µg/mL Blasticidin (Beyotime/ST018-1mL), at 37°C with 5% CO2. Cells were passaged 2 to 3 times per week. When cells were in the exponential growth phase, the cells were harvested, counted, and inoculated subcutaneously on the right dorsal side of BALB/c mice.
100 µL of 1 × 10^6 4T1 hPD-L1 cell suspension was inoculated subcutaneously on the right dorsal side of BALB/c mice. On the 6th day after inoculation, suitable animals were selected based on tumor volume and body weight, and stratified randomization was used to divide them into 4 groups, with 10 mice per group. Administration began on the day of grouping. Table 1: Animal Experiment Grouping and Administration Regimen
(§2) The experimental indicators were examined to determine whether tumor growth could be inhibited, delayed, or cured. Tumors were measured three times per week using a digital vernier caliper. The tumor volume was calculated using the formula: V = 0.5a × b^2, where a and b represent the long and short diameters of the tumor, respectively. The tumor growth inhibition efficacy of compounds was calculated as: TGI (%) = [1 - (TVi - TV0) / (TVVi - TVV0)] × 100% (where TV0 represents the mean volume of the treatment group on day 0, TVV0 represents the mean volume of the control group on day 0; TVi represents the mean volume of the treatment group on day i, and TVVi represents the mean volume of the control group on day i).
(§3) If the animals' health condition continued to deteriorate, or the tumor volume exceeded 2,000 mm^3, or severe illness or pain occurred, euthanasia was required. In the following circumstances, the veterinarian was notified and euthanasia was performed: • (1) Significant emaciation with body weight loss exceeding 20%; • (2) Inability to freely access food and water; • (3) The experiment was terminated when the average tumor volume in the control group reached 2000 mm^3.
(§4) GraphPad Prism 8.0 software was used for plotting. Changes in tumor volume in mice were analyzed by Two-way ANOVA and compared with the vehicle control group using Dunnett's method, with P < 0.05 considered statistically significant.

[2] = system: 4T1 hPD-L1 cells; experiment: Pharmacodynamic study on mouse breast cancer 4T1 hPD-L1 model, subcutaneous (Example 2, celecoxib combination); type: in vivo, BALB/c mice; details: Compound of Formula I 120 mg/kg p.o. BID, Celecoxib 60 mg/kg p.o. BID
Method: Experimental animals: 100 BALB/c mice, female, 6 to 8 weeks old, weighing 18 to 21 g, purchased from: Shanghai Jihui Laboratory Animal Care Co., Ltd. (SCXK (Shanghai) 2020-0009; Certificate No.: 20220009001922).
Drugs: Compound of Formula I, manufacturer: Pharmaron (Tianjin) Process Development and Manufacturing Co., Ltd., batch number: TJ-MAX-10181-A-2; Celecoxib, manufacturer: Shanghai Yuanye Bio-Technology Co., Ltd., batch number: D11A6S2152.
as §1
100 µL of 1 × 10^6 4T1 hPD-L1 cell suspension was inoculated subcutaneously on the right dorsal side of BALB/c mice. On the seventh day after inoculation, stratified randomization was used to divide into 4 groups (10 mice per group) based on tumor volume and body weight. Administration began on the day of grouping. Table 5: Animal Experiment Grouping and Administration Regimen
as §2, §3, §4

[3] = system: 4T1 cells; experiment: Orthotopic 4T1 breast cancer model with tumor resection, survival study (Example 3, paclitaxel combination); type: in vivo, BALB/c mice; details: day 38; Compound of Formula I 60 mg/kg PO BID; Paclitaxel 6 mg/kg IP Q2D; orthotopic tumors resected 13 days after inoculation; n=10
Method: Experimental animals: 50 BALB/c mice, female, 6 to 8 weeks old, weighing 18 to 20 g. Zhejiang Vital River Laboratory Animal Technology Co., Ltd., Tongxiang Branch (SCKX (Zhejiang) 2021-0006); Certificate No.: 20220728Abzz0600000694.
Drugs: Compound of Formula I, manufacturer: Pharmaron (Tianjin) Process Development and Manufacturing Co., Ltd., batch number: TJ-MAX-10181-A-2; Paclitaxel (6 mg/mL), manufacturer: Corden Pharma Latina S.P.A., batch number: 2D07013.
Murine 4T1 cells were grown adherently in vitro under culture conditions of RPMI-1640 medium supplemented with 10% heat-inactivated fetal bovine serum at 37°C with 5% CO2. Cells were passaged 2 to 3 times per week. When the cells were in the exponential growth phase, the cells were harvested, counted, and inoculated into the fourth fat pad on the left abdomen of BALB/c mice.
50 µL of 1 × 10^5 4T1 cell suspension was inoculated into the fourth fat pad on the left abdomen of BALB/c mice. […]
The experimental indicators were examined to determine whether tumor growth could be inhibited, delayed, or cured. Tumors were measured three times per week using a digital vernier caliper. The tumor volume was calculated using the formula: V = 0.5a × b^2, where a and b represent the long and short diameters of the tumor, respectively. […]

[4] = system: GL-261-luc cells; experiment: Mouse glioma GL-261-luc brain orthotopic xenograft tumor model, pharmacodynamics and survival (Example 4, temozolomide combination); type: in vivo, C57 BL/6 mice; details: Compound of Formula I 120 mg/kg PO BID, TMZ 7.5 mg/kg IP BIW
Method: Experimental animals: 57 C57 BL/6 mice, female, 6 to 8 weeks old, weighing 16 to 20 g, purchased from Shanghai Jihui Laboratory Animal Care Co., Ltd.
Drugs: Compound of Formula I [drawing 5] manufacturer: Pharmaron (Tianjin) Process Development and Manufacturing Co., Ltd., batch number: TJ-MAX-10181-A-2; TMZ (Temozolomide), manufacturer: Shanghai Aladdin Biochemical Technology Co., Ltd., batch number: J2227749.
Murine GL-261-luc cells were grown adherently in vitro under culture conditions of DMEM medium supplemented with 10% heat-inactivated fetal bovine serum and 0.6 mg/mL G418 (stock concentration: 100 mg/mL), at 37°C with 5% CO2. Cells were passaged 2 to 3 times per week. When cells were in the exponential growth phase, the cells were harvested, counted, and inoculated into the right caudate nucleus of C57 BL/6 mice.
GL-261-luc cells in logarithmic growth phase were harvested at full confluence with viability guaranteed 90% or more. Mice were anesthetized via intraperitoneal injection of 41.6 mg/kg Zoletil according to body weight. 1 × 10^5/2 µL/mouse cells was orthotopically inoculated into the right caudate nucleus of each mouse, and the skin was sutured with 4/0 suture. After recovery, mice were returned to their cages. 4 days after inoculation, mice were imaged and grouped using the IVIS Lumina XR small animal imager. Fluorescence signal intensity was used for stratified randomization into 4 groups (9 mice per group). Administration began on the day of grouping, with daily weight monitoring and observation of mouse growth status. Mice were imaged twice weekly. Table 11: Animal Experiment Grouping and Administration Regimen
The experimental indicators were examined to determine whether tumor growth could be inhibited, delayed, or cured. According to the experimental design, tumor growth was monitored by imaging mice using the IVIS Lumina XR small animal imager. The tumor growth inhibition efficacy of the compounds was evaluated using TGI (Tumor Growth Inhibition), where TGI (%) = [1 - (TFtreatment-Dn - TFtreatment-D0) / (TFcontrol-Dn - TFcontrol-D0)] × 100% (where TFtreatment-D0 represents the fluorescence signal intensity of the treatment group on day 0, TFcontrol-D0 represents the fluorescence signal intensity of the control group on day 0; TFtreatment-Dn represents the fluorescence signal intensity of the treatment group on day n, and TFcontrol-Dn represents the fluorescence signal intensity of the control group on day n). The calculation formula for an increase in life span (ILS) is: ILS = (MSTTreatment - MSTControl) / MSTControl × 100% (where MSTTreatment is the median survival days for the treatment group, and MSTControl is the median survival days for the control group).
Tumor size was analyzed using the statistical software GraphPad Prism based on fluorescence signal intensity values. Two-way ANOVA was used to compare whether there were significant differences in fluorescence signal intensity between the control group and each treatment group, with p < 0.05 considered statistically significant and p < 0.01 considered highly statistically significant.

[5] = mean, n=10, baseline on day of grouping

Q: Which results are given for `CCCCCOC(=O)Nc1nc(=O)n([C@@H]2O[C@H](C)[C@@H](O)[C@H]2O)cc1F` [Capecitabine]?
A: TGI (%)/Day 21 ([1]; Day 21 vs vehicle control): 56.16%; Tumor Volume at the Beginning of the Experiment/Day 0 [1, 5]: 125.17 mm^3

Q: `Cc1ccc(-c2cc(C(F)(F)F)nn2-c2ccc(S(N)(=O)=O)cc2)cc1` [Celecoxib] was tested. Which “TGI (%)/Day 21” value ([2]; Day 21 vs vehicle control) did it give?
A: 83.90%

Q: What about the “Tumor Volume at the End of the Experiment/Day 21” value ([2]; mean, n=10, Day 21) of the same molecule?
A: 341.70 mm^3

Q: And the “Tumor Volume at the Beginning of the Experiment/Day 0” value [2, 5]?
A: 159.34 mm^3

Q: What about the “Body Weight of Animals at the Beginning of the Experiment” value ([2]; mean, baseline) of the same molecule?
A: 22.68 g

Q: What about the “Body Weight of Animals at the End of the Experiment” value ([2]; mean, end of experiment) of the same molecule?
A: 23.68 g

Q: And the “Relative Body Weight Change of Animals at the End of the Experiment” value ([2]; mean, end of experiment)?
A: 4.48%

Q: For `CC(=O)O[C@H]1C(=O)[C@@]2(C)[C@H]([C@H](OC(=O)c3ccccc3)[C@]3(O)C[C@H](OC(=O)[C@H](O)[C@@H](NC(=O)c4ccccc4)c4ccccc4)C(C)=C1C3(C)C)[C@]1(OC(C)=O)CO[C@@H]1C[C@@H]2O` [Paclitaxel], which “survival rate of mice” value [3] is on record?
A: 10%

Q: For `Cn1nnc2c(C(N)=O)ncn2c1=O` [TMZ, Temozolomide], which “TGI (%)/Day 14” value ([4]; Day 14, based on fluorescence signal intensity vs vehicle control) is on record?
A: 35.51%

Q: And the “Total Fluorescence Intensity at the End of the Experiment/Day 14” value ([4]; Day 14)?
A: 1.27E + 09 p/s

Q: What about the “Total Fluorescence Intensity at the Beginning of the Experiment/Day 0” value ([4]; baseline Day 0) of the same molecule?
A: 2.76E + 07 p/s

Q: And the “mice showed > 10% body weight loss” value ([4]; by day 14 of administration, 9 mice per group)?
A: 2 mice

Q: And the “Body Weight of Animals at the End of the Experiment” value ([4]; mean, n=9)?
A: 19.40 g

Q: And the “Relative Body Weight Change of Animals at the End of the Experiment” value ([4]; mean, n=9)?
A: -0.63%

Q: And the “Body Weight of Animals at the Beginning of the Experiment” value ([4]; mean, n=9, baseline)?
A: 19.51 g

Q: What about the “increase in life span (ILS)” value ([4]; median survival vs vehicle control, end of experiment) of the same molecule?
A: 25%
